Ten molecules from ChEMBL document CHEMBL5036340 (Eur J Med Chem, 2021) can be followed below.

Activity calls are given as the source filed them. The calls are words filed in the database; no cut-off is given here.

Series [1] concerns the target T1, Acetylcholinesterase (Rattus norvegicus, UniProt P37136).
T1 sequence (P37136 whole entry): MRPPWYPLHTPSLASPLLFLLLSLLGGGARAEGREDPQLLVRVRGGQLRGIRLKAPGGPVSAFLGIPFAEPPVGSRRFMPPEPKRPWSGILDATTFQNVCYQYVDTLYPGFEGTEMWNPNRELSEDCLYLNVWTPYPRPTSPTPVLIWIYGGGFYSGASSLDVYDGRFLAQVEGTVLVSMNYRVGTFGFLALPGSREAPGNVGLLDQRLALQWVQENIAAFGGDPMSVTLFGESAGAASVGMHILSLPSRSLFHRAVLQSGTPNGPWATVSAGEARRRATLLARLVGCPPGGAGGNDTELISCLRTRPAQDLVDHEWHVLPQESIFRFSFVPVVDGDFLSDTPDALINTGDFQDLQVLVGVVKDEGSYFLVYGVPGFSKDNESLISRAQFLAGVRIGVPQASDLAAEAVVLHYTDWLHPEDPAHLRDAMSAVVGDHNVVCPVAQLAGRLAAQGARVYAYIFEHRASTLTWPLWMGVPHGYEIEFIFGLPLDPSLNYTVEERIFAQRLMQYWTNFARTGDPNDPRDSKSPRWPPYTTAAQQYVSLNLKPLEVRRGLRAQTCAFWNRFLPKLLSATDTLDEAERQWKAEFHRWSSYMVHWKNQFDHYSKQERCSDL
As to the kind of experiment: Inhibition of rat cortex AChE using acetylthiocholine iodide as substrate by Ellman's method.

Series [2] has as its system HepG2. As to the kind of experiment: cells. Type of series: functional, cell-based. Conditions: Homo sapiens, HepG2, 24 h.
Description: Cytotoxicity against human HepG2 cells assessed as reduction in cell viability incubated for 24 hrs by MTT assay
In series [3] the target is Butyrylcholinesterase (Rattus norvegicus, UniProt Q9JKC1).
Chain of Butyrylcholinesterase (Q9JKC1 whole entry): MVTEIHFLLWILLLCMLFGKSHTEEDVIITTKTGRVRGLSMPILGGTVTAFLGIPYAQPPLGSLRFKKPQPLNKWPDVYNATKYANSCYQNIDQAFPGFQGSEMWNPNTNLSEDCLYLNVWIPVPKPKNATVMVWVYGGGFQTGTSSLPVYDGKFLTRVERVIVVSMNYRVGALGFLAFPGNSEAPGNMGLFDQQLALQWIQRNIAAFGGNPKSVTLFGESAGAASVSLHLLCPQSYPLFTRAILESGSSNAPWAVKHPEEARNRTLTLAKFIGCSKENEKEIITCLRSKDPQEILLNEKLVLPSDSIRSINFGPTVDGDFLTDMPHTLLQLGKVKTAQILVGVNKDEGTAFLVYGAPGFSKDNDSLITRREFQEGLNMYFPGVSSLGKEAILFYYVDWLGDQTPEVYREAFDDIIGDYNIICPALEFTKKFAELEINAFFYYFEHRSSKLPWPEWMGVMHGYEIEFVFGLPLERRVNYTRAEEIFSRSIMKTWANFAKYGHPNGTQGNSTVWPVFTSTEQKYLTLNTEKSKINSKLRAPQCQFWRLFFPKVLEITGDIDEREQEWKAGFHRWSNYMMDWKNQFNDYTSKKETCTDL
Description: Inhibition of rat serum BChE using butyrylthiocholine iodide as substrate by Ellman's method
Series [4] has as its target Voltage-gated inwardly rectifying potassium channel KCNH2 (Homo sapiens, UniProt Q12809).
Description: Inhibition of hERG expressed in CHO-K1 cells assessed as reduction in thallium influx incubated for 30 minutes by FLIPR
Series [5] is described as follows: in vitro. The conditions noted are these: rat, HepG2 cells.
Description: Ratio of IC50 for cytotoxicity against human HepG2 cells to ratio of IC50 for inhibition of rat cortex AChE
Series [6] has as its target T2, Acetylcholinesterase (Rattus norvegicus) (UniProt P37136).
T2 sequence (whole entry): T1 sequence (P37136 whole entry)
As to the kind of experiment: Mixed-type inhibition of rat cortex AChE at 0.5 to 1.5 nM using varying levels of acetylthiocholine iodide as substrate measured at 5 minutes by Ellman's method based Lineweaver-Burk plot analysis. Conditions: dose 0.5-1.5 nM.

Series [7] is described as follows: Terminal half life in C57BL/6 mouse plasma at 10 mg/kg, po administered as single dose measured upto 24 hrs by UPLC analysis. The format is ADME, organism-based. Conditions: read-out: beta t1/2 (converted).
Series [8] is described as follows: Terminal half life in C57BL/6 mouse brain at 10 mg/kg, po administered as single dose measured upto 24 hrs by UPLC analysis. The format is ADME, organism-based. The conditions noted are these: read-out: beta t1/2 (converted).
The nature of series [9]: Terminal half life in C57BL/6 mouse liver at 10 mg/kg, po administered as single dose by UPLC analysis. The conditions noted are these: read-out: beta t1/2 (converted). The format is ADME, organism-based.
The nature of series [10]: Terminal half life in C57BL/6 mouse kidney at 10 mg/kg, po administered as single dose by UPLC analysis. Type of series: ADME, organism-based. The conditions noted are these: read-out: beta t1/2 (converted).
Series [11] in a line: Tmax in C57BL/6 mouse plasma at 10 mg/kg, po administered as single dose measured upto 24 hrs by UPLC analysis. Type of series: ADME, organism-based.
Series [12] can be described thus: Tmax in C57BL/6 mouse brain at 10 mg/kg, po administered as single dose measured upto 24 hrs by UPLC analysis. Type of series: ADME, organism-based.
Series [13] can be described thus: Tmax in C57BL/6 mouse liver at 10 mg/kg, po administered as single dose by UPLC analysis. Type of series: ADME, organism-based.
Series [14] can be described thus: Tmax in C57BL/6 mouse kidney at 10 mg/kg, po administered as single dose by UPLC analysis. Type of series: ADME, organism-based.
The nature of series [15]: Cmax in C57BL/6 mouse plasma at 10 mg/kg, po administered as single dose measured at 2.25 hrs by UPLC analysis. Type of series: ADME, organism-based. Details: route oral, dose 10 mg/kg, time 2.25 hrs.
The nature of series [16]: Cmax in C57BL/6 mouse brain at 10 mg/kg, po administered as single dose measured at […] by UPLC analysis. The format is ADME, organism-based.
The nature of series [17]: Cmax in C57BL/6 mouse liver at 10 mg/kg, po administered as single dose measured at 1.75 hrs by UPLC analysis. Type of series: ADME, organism-based. Details: route oral, time 1.75 hrs, dose 10 mg/kg.
Series [18] is described as follows: Cmax in C57BL/6 mouse kidney at 10 mg/kg, po administered as single dose measured at 2.50 hrs by UPLC analysis. Type of series: ADME, organism-based. Details: route oral, time 2.5 hrs, dose 10 mg/kg.
The nature of series [19]: AUC (0 to t) in C57BL/6 mouse plasma at 10 mg/kg, po administered as single dose measured upto 24 hrs by UPLC analysis. Type of series: ADME, organism-based. Details: route oral, dose 10 mg/kg, time <=24. Conditions: in vivo.
Series [20] can be described thus: AUC (0 to infinity) in C57BL/6 mouse plasma at 10 mg/kg, po administered as single dose measured upto 24 hrs by UPLC analysis. Type of series: ADME, organism-based. The conditions noted are these: in vivo. Details: route oral, dose 10 mg/kg, time <=24.
The nature of series [21]: AUC (0 to infinity) in C57BL/6 mouse brain at 10 mg/kg, po administered as single dose measured upto 24 hrs by UPLC analysis. The conditions noted are these: in vivo. The format is ADME, organism-based. Details: route oral, dose 10 mg/kg, time <=24.
Series [22] in a line: AUC (0 to infinity) in C57BL/6 mouse liver at 10 mg/kg, po administered as single dose by UPLC analysis. Conditions: in vivo. Details: time infinity, route oral, dose 10 mg/kg. Type of series: ADME, organism-based.
Series [23] is described as follows: AUC (0 to infinity) in C57BL/6 mouse kidney at 10 mg/kg, po administered as single dose by UPLC analysis. Type of series: ADME, organism-based. Details: route oral, time infinity, dose 10 mg/kg. Conditions: in vivo.
Series [24] is described as follows: MRT (0 to infinity) in C57BL/6 mouse plasma at 10 mg/kg, po administered as single dose measured upto 24 hrs by UPLC analysis. The format is ADME, organism-based.
Series [25] in a line: MRT (0 to infinity) in C57BL/6 mouse brain at 10 mg/kg, po administered as single dose measured upto 24 hrs by UPLC analysis. Type of series: ADME, organism-based.
A short description of series [26]: MRT (0 to infinity) in C57BL/6 mouse liver at 10 mg/kg, po administered as single dose by UPLC analysis. The format is ADME, organism-based.
Series [27] is described as follows: MRT (0 to infinity) in C57BL/6 mouse kidney at 10 mg/kg, po administered as single dose by UPLC analysis. The format is ADME, organism-based.
For series [28], the system named is Hippocampus. As to the kind of experiment: Anti-alzheimer activity in theta-burst stimulated C57BL/6 mouse hippocampus CA3 region assessed as enhancement of synaptic strength by measuring long term potentiation in brain slice at 3 mg/kg, po for 4 days by electrophysiological recording relative to control. The format is functional, organism-based. Conditions: time 4.0 day.

The species entered for series [29] is Mus musculus. As to the kind of experiment: Anti-alzheimer activity in C57BL/6 mouse assessed as decrease in pirenzepine induced LTP at 1 microM pretreated for 90 mins and further incubated with pirenzepine for 30 mins followed by high frequency stimulation by electrophysiological recording. Type of series: functional, organism-based. Conditions: time 120.0 min.

Series [30] is described as follows: Drug concentration in C57BL/6 mouse muscle at 10 mg/kg, po administered as single dose by UPLC analysis. Type of series: ADME, organism-based, Muscle tissue. The conditions noted are these: in vivo.

Chain of Voltage-gated inwardly rectifying potassium channel KCNH2 (Q12809 whole entry): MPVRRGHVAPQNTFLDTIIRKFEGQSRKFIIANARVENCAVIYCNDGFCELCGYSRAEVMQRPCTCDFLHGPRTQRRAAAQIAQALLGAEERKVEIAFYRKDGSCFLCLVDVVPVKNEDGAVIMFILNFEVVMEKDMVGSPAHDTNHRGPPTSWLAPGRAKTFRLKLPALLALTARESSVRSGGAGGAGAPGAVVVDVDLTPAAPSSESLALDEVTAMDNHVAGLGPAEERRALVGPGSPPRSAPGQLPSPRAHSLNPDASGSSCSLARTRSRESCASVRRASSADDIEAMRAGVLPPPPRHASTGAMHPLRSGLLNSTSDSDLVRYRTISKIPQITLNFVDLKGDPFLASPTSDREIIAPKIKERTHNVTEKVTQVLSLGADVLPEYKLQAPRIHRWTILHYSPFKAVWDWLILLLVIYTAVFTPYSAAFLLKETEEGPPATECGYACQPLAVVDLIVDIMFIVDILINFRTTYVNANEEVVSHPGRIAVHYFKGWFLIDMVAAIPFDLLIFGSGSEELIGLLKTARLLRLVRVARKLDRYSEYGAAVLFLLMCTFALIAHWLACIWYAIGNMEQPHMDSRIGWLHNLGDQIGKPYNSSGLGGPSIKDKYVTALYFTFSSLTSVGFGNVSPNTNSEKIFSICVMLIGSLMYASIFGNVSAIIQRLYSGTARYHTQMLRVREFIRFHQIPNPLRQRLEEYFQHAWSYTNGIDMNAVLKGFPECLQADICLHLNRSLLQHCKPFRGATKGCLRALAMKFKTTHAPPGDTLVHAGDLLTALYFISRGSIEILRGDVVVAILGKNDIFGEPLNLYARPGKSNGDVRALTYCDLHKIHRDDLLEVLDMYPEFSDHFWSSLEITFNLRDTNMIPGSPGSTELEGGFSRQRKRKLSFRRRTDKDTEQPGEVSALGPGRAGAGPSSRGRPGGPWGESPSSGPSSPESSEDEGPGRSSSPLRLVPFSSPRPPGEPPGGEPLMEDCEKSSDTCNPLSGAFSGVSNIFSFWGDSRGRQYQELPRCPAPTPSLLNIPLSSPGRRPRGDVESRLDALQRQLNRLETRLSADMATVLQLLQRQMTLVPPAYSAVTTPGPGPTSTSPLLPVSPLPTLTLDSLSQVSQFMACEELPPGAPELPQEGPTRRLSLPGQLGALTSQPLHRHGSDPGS

In general, IC50 refers to the point on the concentration scale where inhibition reaches its midpoint. Higher therefore signals weaker potency in that assay. As to `O=c1ccc2c([nH]1)CCC(NCCCCCCCCCNc1c3c(nc4cc(Cl)ccc14)CCCC3)C2` (configuration not stated), the IC50 in series [1] was found to be 0.0291 µM; in [2], 35.5 µM; in series [3], 1.07 µM.

As for `O=c1ccc2c([nH]1)CCC(NCCCCCCCNc1c3c(nc4cc(Cl)ccc14)CCCC3)C2` (configuration not stated), the IC50 was determined as 0.0148 µM in series [1], 39.2 µM in [2], 0.893 µM in [3] and 6.36 µM in [4]. The selectivity ratio in series [5] was found to be 2660.

Turning to `O=c1ccc2c([nH]1)CCC(NCCCCCCNc1c3c(nc4cc(Cl)ccc14)CCCC3)C2` (configuration not stated), the concentration for half-maximal inhibition (IC50) came out at 0.00602 µM in series [1], 51.3 µM in [2], 0.574 µM in [3] and 11.6 µM in [4]. For the same molecule, the selectivity ratio in [5] amounted to 8520.

For the molecule `O=c1ccc2c([nH]1)CCC(NCCNc1c3c(nc4cc(Cl)ccc14)CCCC3)C2` (configuration not stated), the 50% inhibitory concentration (IC50) is 0.0177 µM in [1], 214 µM in [2], 0.401 µM in series [3] and 2.41 µM in series [4]. The selectivity ratio in [5] is 12100.

With `O=c1ccc2c([nH]1)CCC(NCCCCNc1c3c(nc4cc(Cl)ccc14)CCCC3)C2` (configuration not stated), the half-maximal inhibitory concentration (IC50) in series [1] turned out to be 0.00294 µM; in [2], 110 µM; in [3], 0.347 µM.

`COc1cc2c(cc1OC)C(=O)C(CC1CCN(Cc3ccccc3)CC1)C2` (configuration not stated) [DONEPEZIL] displayed a half-inhibitory concentration (IC50) in series [2] of 263 µM.

As for `O=c1ccc2c([nH]1)CCC(NCCCCCNc1c3c(nc4cc(Cl)ccc14)CCCC3)C2` (configuration not stated), the concentration for half-maximal inhibition (IC50) amounted to 0.00566 µM in series [1], 47.2 µM in series [2], 0.503 µM in series [3] and 7.66 µM in series [4]. In addition, the selectivity ratio in series [5] came out at 8340.

The term Tmax denotes the time from dosing to the highest level. As a reminder, the Cmax is the maximum level reached in the sampled fluid or tissue. The term MRT inf denotes a mean duration of stay, worked out from the concentration-time curve. For the molecule `O=c1ccc2c([nH]1)CCC(NCCCNc1c3c(nc4cc(Cl)ccc14)CCCC3)C2` (configuration not stated), the IC50 in [1] was determined as 0.0009 µM; in [2] it was 107 µM; in series [3] it was 0.2 µM; in [4], 8.98 µM. In addition, the inhibition result in series [6] is “Active”. Further, the half-life was 7.89 h in series [7], 7.8 h in series [8], 7.16 h in series [9] and 7.49 h in series [10]. For the same molecule, the Tmax in [11] came out at 2.25 h; in series [12], 2.75 h; in series [13] it was 1.75 h; in series [14] it was 2.5 h. For the same molecule, the results for the Cmax in [15], in series [17] and in [18] were 0.0683 µg/mL, 0.148 µg/mL and 0.165 µg/mL, respectively. In [16], this molecule came in with a Cmax at […] of 0.00402 µg/mL. The same molecule returned an AUCt in [19] of 0.246 µg·h/mL. Besides, the AUC in series [20] stood at 0.279 µg·h/mL; in [21], 21.86 g/h; in series [22], 534.14 g/h; in series [23], 1124.93 g/h. For the same molecule, the mean residence time (MRT inf) amounted to 10.8 h in [24], 11.1 h in series [25], 8.39 h in series [26] and 11.1 h in series [27]. In addition, the outcome in series [28] and in [29] was Active. Moreover, the Drug uptake result in [30] was “Not Active”. The selectivity ratio in series [5] came to 119000.

`O=c1ccc2c([nH]1)CCC(NCCCCCCCCNc1c3c(nc4cc(Cl)ccc14)CCCC3)C2` (configuration not stated): the IC50 stood at 0.0127 µM in series [1], 42.6 µM in series [2], 1.36 µM in [3] and 2.19 µM in series [4]. The selectivity ratio in series [5] turned out to be 3340.

Regarding `O=c1ccc2c([nH]1)CCC(NCCCCCCCCCCNc1c3c(nc4cc(Cl)ccc14)CCCC3)C2` (configuration not stated), the IC50 turned out to be 0.066 µM in series [1], 17.2 µM in [2], 3.78 µM in series [3] and 2.77 µM in series [4]. For the same molecule, in series [5], the selectivity ratio came out at 260.
